From patent publication US20160022620A1, “ENCAPSULATED COMPOSITION FOR BINDING ALDEHYDES IN THE STOMACH” (BIOHIT OYJ, priority 2013, published 2016)

Test: Dissolution test for the capsules (USP I method, pH 1.2 HCl buffer)
Format: physicochemical
Conditions: not granulated; in 5 minutes
Experimental: Dissolution tests were carried out on the capsules of Example 1 according to the USP I method (USP 24) (The United States Pharmacopeia 2001). A standard curve was prepared between 0.01 and 0.6 mg/ml ([…], r^2=0.9999). The medium used was 500 ml of pH 1.2 HCl buffer. The rotation rate of the baskets was 100 rpm, and the temperature of the medium was +37° C. (±0.5). Samples were taken at 5-minute intervals for the first half hour and thereafter at 10-minute intervals for the remaining 2 hours. L-cysteine was detected in flow-through cells (10 mm) at a wavelength of 213 nm. The results were calculated by using dissolution software. The system was equipped with a bath and a pump (Sotax AT7 UV Dissolution System, Stax, Allschwil, Switzerland) and a spectrophotometer (PerkinElmer, Lambda 25, PerkinElmer, Inc., Waltham, Mass.), the software used for the test and for calculating the results was WinSotax (Sotax). […] When not granulated, the L-cysteine was dissolved rapidly (100% in 5 minutes).

L-cysteine dissolved: 100%
Structure (SMILES): N[C@@H](CS)C(=O)O [L-cysteine]
